Read-outs that look alike come from different tables or passages of the source.
Columns and labels:
[1] = Bisphosphonate concentration at about 90% saturation in the vehicle; format: physicochemical
Experimental: Compositions in various vehicles (water/ethanol or buffer/ethanol, with or without additional ingredients, water (pure aqueous)) were prepared, using each bisphosphonate at a concentration of about 90% the saturation value. For example, “90/10” denotes a 90/10 (v/v) mixture of water/ethanol; “90/10 pH6” denotes a 90/10 (v/v) mixture of phosphate buffer pH6/ethanol.
Bisphosphonate concentrations are at about 90% saturation.
Risedronate sodium is generally administered using a dose of 35 mg of anhydrous monosodium risedronate, once a week. Advantageously, for a topical dose of 35 mg, this corresponds to 1.5 g of a solution according to one embodiment (risedronate at 90% saturation in phosphate-buffered hydroalcoholic solution 90/10 […], i.e. anhydrous monosodium risedronate at 22.4 mg/g). The same topical dose of 35 mg, corresponds to 0.8 g of another embodiment (risedronate at 90% saturation in pure water, i.e. anhydrous monosodium risedronate at 45.3 mg/g). […] The in vitro condition of application—i.e. 10 μl/1.77 cm^2—mimics an in vivo situation wherein the formulation is applied as a thin layer of 1-2 mg of formulation/cm^2.

[2] = rat
[3] = rat, published data, Lin et al.; cited from earlier work
ovariectomized rats [4] = settings: OVX rats
Text: (§1) Ovariectomized rats are a recognised model for bone loss study, as the surgical operation causes an estrogen deficiency which results in rapid bone loss. See Guideline on the evaluation of medicinal products in the treatment of primary osteoporosis, CPMP/EWP/552/95 available for download from the European Medicine Agency at: http://www.emea.europa.eu/.
(§2) 13-week old rats (Sprague-Dawley, virgin female), 8 per group, were sham operated (group 1-control) or ovariectomized (OVX) (groups 2 to 7) on the day before the first day of treatment.
Femur and L2-L5 lumbar vertebrae block Bone Mineral Density (BMD) were calculated from in vivo Dual-energy X-ray Absorptiometry (DXA) measurement at the same time points with an Hologic apparatus. BMD was also measured ex vivo on dissected femur and L4 vertebrae at the end of the treatment period.

ovariectomized rats [5] = settings: OVX rats; remark: listed apart in the source
Text: as §1, §2
Urinary deoxypyridinoline (D-pyr) and creatinine (Creat) were determined at baseline, week 4 and week 8. The ratio of D-Pyr to Creat is a recognised marker of bone resorption. See, e.g., Christenson RH “Biochemical markers of bone metabolism: an overview” Clin Biochem 1997, 30(8), 573-593.

[6] = In vitro dermal absorption, static diffusion cell (Franz cell)
[7] = phosphate-buffered hydroalcoholic solution 90/10
[8] = group 4: 4.46 mg/kg daily topical (reduced from 15.6 mg/kg/d after 2 weeks)
[9] = group 5: 15.6 mg/kg weekly topical
[10] = group 7: 10.85 mg/kg twice weekly topical (reduced from 15.6 mg/kg after 2 weeks)
[11] = buffered solution, compared to 100% phosphate buffer solution, FIG. 10 / FIG. 11

NCCCC(O)(P(=O)(O)O)P(=O)(O)O [Sodium Alendronate]
concentration at 90% saturation [1, 7]: 10.4 mg/g
concentration at 90% saturation ([1]; pure water): 28.09 mg/g

O=P([O-])(O)C(O)(Cc1cccnc1)P(=O)(O)O.[Na+] [Sodium Risedronate]
concentration at 90% saturation [1, 7]: 22.4 mg/g
concentration at 90% saturation ([1]; pure water): 45.3 mg/g

NCCCC(O)(P(=O)(O)O)P(=O)(O)O [alendronate, 4-amino-1-hydroxybutylidene-1,1-bisphosphonic acid]
bone recovery after dermal administration ([2]; data from Example 4): 0.2%
delivered dose contained in gauze wrap removed at 24 h ([2]; dermal administration): about 10%
delivered dose contained in washing medium and swabs ([2]; dermal administration, 24 h): about 46%
dermally delivered alendronate not absorbed ([2]; gauze wrap + washing medium and swabs at 24 h): 56%
bone recovery after oral administration [3]: 0.9%
BMD results compared with subcutaneous injection (group 3) or control (group 1) (ovariectomized rats [4]; topical groups 4-7, 8 weeks): similar
BMD in the distal metaphysis (part of femur) compared with the subcutaneous injection group (group 3) (ovariectomized rats [4]; topically treated groups 4 and 7): statistically higher
D-pyr/Creat, Week 4 (ovariectomized rats [5]; group 3: 2 μg/kg daily sc inj): 118 ± 64
D-pyr/Creat, Week 8 (ovariectomized rats [5]; group 3: 2 μg/kg daily sc inj): 72 ± 13
D-pyr/Creat, Week 4 (ovariectomized rats [5]; [8]): 58 ± 13
D-pyr/Creat, Week 8 (ovariectomized rats [5]; [8]): 42 ± 15
D-pyr/Creat, Week 4 (ovariectomized rats [5]; [9]): 138 ± 60
D-pyr/Creat, Week 8 (ovariectomized rats [5]; [9]): 67 ± 26
D-pyr/Creat, Week 4 (ovariectomized rats [5]; [10]): 88 ± 52
D-pyr/Creat, Week 8 (ovariectomized rats [5]; [10]): 57 ± 24

O=P(O)(O)C(O)(Cc1cccnc1)P(=O)(O)O [risedronate, 1-hydroxy-2-(3-pyridyl)ethylidene-1,1-bisphosphonic acid]
effect of glycerine on the amount recovered in the receptor fluid and the dermis ([6]; FIG. 12 / FIG. 13): does not significantly increase
effect of propylene glycol (PG) on the amount recovered [6, 11]: does not significantly affect
effect of urea on the amount recovered in the receptor fluid and the skin/dermis [6, 11]: increases
effect of menthol on the amount recovered in the receptor fluid and dermis ([6]; menthol at 90% of saturating concentration in 90/10 phosphate buffer/ethanol, compared to pure phosphate buffer solution, FIG. 6 / FIG. 7): does not increase
amount recovered in the receptor fluid and the dermis with oleic acid, compared to the 100% phosphate buffer solution ([6]; oleic acid at 90% of maximum solubility in 90/10 phosphate buffer/ethanol with Tween 80 at 4.5%, FIG. 12 / FIG. 13): lower
effect of urea on the amount recovered in the receptor fluid and the skin ([6]; urea incorporated in phosphate buffer solution, FIG. 8 / FIG. 9): neutral effect
recovery in the receptor fluid and the dermis at 24 hrs (crossing of the skin) ([6]; water/alcohol compositions, FIG. 1 / FIG. 2): does cross the skin
effect of the increase in alcohol content on absorption, as percentage of the dose applied ([6]; water/alcohol ratios, FIG. 1 / FIG. 2): slightly increased

Reference: US20080182822A1, “Liquid Pharmaceutical Compositions Comprising a Bisphosphonate Compound” (Besins Healthcare SA, priority 2006, published 2008)
